Where “and” joins values, the source holds several entries; their conditions need not be identical. Equal entries are not always repeated. Where two headings read alike, the source gives them in different places.
Legend:
[1] = target: T1, Rba. sphaeroides reaction centre (QB site) (Cereibacter sphaeroides, UniProt P0C0Y8); assay: Inhibition of photocurrent generation in photoelectrochemical cell with reaction centres adhered to a gold electrode; type: biochemical, Rhodobacter sphaeroides; details: for inhibition of the QB site / photocurrent (in words): present study, detergent-free buffer; for LOD (IC5): calculated from IC50 and Hill coefficient, 5% change in current
T1 construct: made in house; host or cells: Rba. sphaeroides strain DD13 carrying plasmid pvLMt (written pvLMtX)
Description: To adhere reaction centres the cleaned gold electrode was immersed in 25 µL of a 1 mg mL^−1 (approximately 10 µM) solution of purified reaction centres in 20 mM Tris (pH 8.0)/0.1% LDAO for 1 h at 4 °C in dark. Unbound reaction centres were removed by dipping the electrode in ice-cold 20 mM Tris (pH 8.0) three times. The coated gold electrode was assembled into a glass-bottomed cell along with a Pt counter electrode (Radiometer Analytical), and an Ag/AgCl reference electrode (Radiometer Analytical). The cell was filled with 1 ml of 20 mM Tris (pH 8.0) containing 20 µM horse heart cyt c and 30 µM UQ0 (both from Sigma-Aldrich) and placed above a shutter-controlled 1.5 W 880 nm LED light source (Roithner LaserTechnik), resulting in an illumination intensity of 46 mW cm^−2 at the working electrode. A potential of −100 mV vs SCE was applied and photocurrents measured by chronoamperometry using the Autolab PGSTAT128N potentiostat (Metrohm) controlled by the PC running Autolab Nova 1.4 software (Metrohm).
The cell was incubated for 1 min before measurement of a 30 s photocurrent. All herbicides and inhibitors were purchased from Sigma-Aldrich, and their structures are shown in Supplementary Fig. 2.
For titrations, the photocurrent from a freshly prepared cell was measured for 30 s before and after the addition of increasing concentrations of atrazine, terbutryn or stigmatellin prepared in 20 mM Tris (pH 8.0)/20 µM cyt c/30 µM UQ0. After each addition the cell was equilibrated for 60 s before measuring the photocurrent, which was sufficient to allow stabilisation of the applied current required to maintain a potential of −100 mV vs SCE. Maximal photocurrents were plotted as a function of inhibitor concentration and fitted with a logistic function to determine the IC50 and IC5 (see text). These IC50 values were used to estimate Ki using the Cheng–Prusoff equation (see text).
To quantify the sensitivity of photocurrent generation to atrazine, terbutryn and stigmatellin the maximal photocurrent after a standard period of 30 s was recorded as a function of herbicide or inhibitor concentration. The titration data, expressed as the percentage of the maximum current in the absence of the herbicide/inhibitor, were fitted to a logistic function (Eq. (1)) to determine the IC50.(1) Y=Min+Max−Min/1+([Inhibitor]/IC50)^−HillCoefficient where Max and Min are maximal and minimal photocurrents, respectively. […] Based on this, the LOD can be represented by an IC5 value that can be calculated from the parameters of the IC50 fit (Eq. (2)).
To compare the sensitivity of our photochemical cell device to previous studies employing Rba. sphaeroides reaction centres, the IC50 values were converted to values for the binding affinity of the inhibitor (Ki) using the Cheng–Prusoff equation (Eq. (3)) ([Cheng and Prusoff, 1973])(3) Ki=IC50/1+([S]/Km) where [S] is the substrate concentration and Km is the measured Michaelis constant for UQ0 (see above).

[2] = target: T1, Rba. sphaeroides reaction centre (QB site); assay: Kinetics of charge recombination in photo-oxidised reaction centres in solution (absorbance at 865 nm); type: biochemical, Rhodobacter sphaeroides; details: for effect on recombination rate (in words): 500 µM agent; for τ1 / τ2 / A1 / A2: 500 µM inhibitor; for τ1 / τ2: 13.2 µM reaction centres, 30 µM UQ0, ± standard error; for A1: amplitude of τ1 component; for A2: amplitude of τ2 component
Description: Analysis of the effects of herbicides or inhibitors on the kinetics of charge recombination was performed using a Cary60 spectrophotometer connected to an external 1 cm cuvette holder (Ocean Optics) via a fibre-optic coupler. A white light pulse of 50 ms duration was applied to the sample cuvette at 90° to the pulsed measuring beam by an HL-2000-FHSA white light source with a fast shutter (Ocean Optics) delivering approximately 25 W m^−2 illumination at the cuvette surface. The actinic pulse was triggered by a TGP110 pulse generator (Thurlby Thandur Instruments). […] Test samples were loaded into to a 3×3 mm fluorescence cuvette (Hellma) aligned to the measuring and excitation pulses and absorbance at 865 nm was measured for 20 s after delivery of the light pulse, with a further period of at least 60 s to allow full dark adaptation of the reaction centres before re-excitation. A set of eight kinetic traces were recorded for each sample, averaged, and fitted using a single or double exponential function in Origin 8 (OriginLab).
To ensure this pattern of results was not specific to the conditions within the photoelectrochemical cell, the ability of these inhibitors to replace ubiquinone at the QB site was also tested by measuring the rate of recombination from QA and QB to the primary donor bacteriochlorophyll (P) after excitation with a pulse of white light (see Section 2). As outlined in Section 1, recombination of P^+QA^− or P^+QB^− occurs with lifetimes of ~100 ms and ~1 s, respectively. As the QB quinone is partially lost during purification of reaction centres, assays were conducted in the presence of 30 µM UQ0 to reconstitute QB, the reaction centre concentration being 13.2 µM.

[3] = target: QB site in the Rba. sphaeroides reaction centre; design: method as in Stein et al., 1984; details: 1 μM reaction centres, 10 mM Tris (pH 8.0), 100 mM NaCl, 0.06% TX-100, 20 μM UQ10; ref Stein et al., 1984; cited from earlier work
[4] = test system: Blc. viridis reaction centres (tyrosine to phenylalanine mutant near QB pocket); design: method as in Sinning et al., 1989; details: ref Sinning et al., 1989, cited from earlier work
PSII = details: cited from earlier work
spinach thylakoids = test system: spinach thylakoids; design: method as in Touloupakis et al., 2005; details: albumin glutaraldehyde matrix; ref Touloupakis et al., 2005; cited from earlier work
[5] = target: T2, Rba. sphaeroides reaction centre quinone reductase (QB) site (Cereibacter sphaeroides, UniProt P0C0Y8); assay: Determination of the Km(apparent) for UQ0 from photocurrent density; type: biochemical, Rhodobacter sphaeroides; details: detergent-free buffer, Michaelis–Menten fit
T2 construct: made in house; host or cells: Rba. sphaeroides strain DD13 carrying plasmid pvLMt (written pvLMtX)
Description: Photovoltaic cells were assembled as described above but with the omission of UQ0. Photocurrents of 30 s duration were measured in the absence of UQ0 and after the addition of increasing amounts of UQ0. Maximal currents from three titrations were averaged, plotted as a function of UQ0 concentration then fitted with the Michaelis–Menten equation using Origin 8.0 (OriginLab).
To optimise the concentration of the substrate for the reaction centre quinone reductase (QB) site in the cell the Km^(apparent) for UQ0 was determined by measuring the maximum photocurrent density during a 30 s period of illumination as a function of increasing concentrations of UQ0. A concentration-dependent increase in the photocurrent amplitude was obtained, which was fitted with the Michaelis–Menten equation (Supplementary Fig. 3). […] This Km^(apparent) for UQ0 is, to our knowledge, the strongest reported to date. […] As the present assay was conducted in detergent-free buffer, the stronger Km^(apparent) obtained is consistent with this trend.

reaction centre QB site = target: reaction centre QB site; design: method as in earlier work; details: ref McComb et al., 1990, Paddock et al., 1988, Gerencsér and Maróti, 2008, cited from earlier work
[6] = test system: Blc. viridis reaction centre; design: method as in Sinning et al., 1989; details: ref Sinning et al., 1989; cited from earlier work
[7] = mutant vs normal reaction centre
[8] = PSII complexes in glutaraldehyde–BSA matrix on graphite electrode, ref Koblížek et al., 2002
[9] = PSII reaction centres or BBY particles on screen printed gold electrodes, ref Bhalla and Zazubovich, 2011

SMILES | photocurrent remaining ([1]; 500 µM agent) | inhibition of the QB site / photocurrent (in words) [1] | effect on recombination rate (in words) [2] | τ1 [2] [s] | τ2 [2] [s] | A1 [2] [%] | A2 [2] [%] | IC50 [1] [µM] | Ki [1] [µM] | photocurrent remaining ([1]; 100 µM agent) | LOD (IC5) [1] [nM] | Kd [3] [µM] | further results
CC(C)N1C(=O)c2ccccc2NS1(=O)=O [bentazon] | greater than 80% | weak inhibition | unaffected | 0.129 ± 0.015 | 1.09 ± 0.03 | 39.0 ± 5.8 | 61.0 ± 3.0 |  |  |  |  |  | 
CCNc1nc(NC(C)(C)C)nc(SC)n1 [terbutryn] |  | strong inhibition | accelerated significantly | 0.152 ± 0.004 |  | 100 |  | 0.208 ± 0.01 | 0.123 | less than 10% | 8.3 | 3 | decrease in sensitivity to inhibitor in mutant [4, 7]: 660 fold
CCNc1nc(Cl)nc(NC(C)C)n1 [atrazine, N^2-ethyl-6-chloro-N^4-isopropyl-1,3,5-triazine-2,4-diamine] |  | strong inhibition | accelerated significantly | 0.212 ± 0.004 |  | 100 |  | 2.1 ± 0.1 | 1.2 | less than 10% | ~50 | 120 | LOD (IC5) ([1]; listed as Atrazine): 49 nM; IC50 (PSII; [8]): 0.09 µM; LOD (PSII; [8]): 2 nM; IC50 (PSII; PSII on screen printed Pt electrode in glutaraldehyde–BSA–glycerol matrix, ref Masojídek et al., 2011): 0.89 µM; IC50 (PSII; [9]): 0.049 µM; LOD (PSII; [9]): 1.15 nM; IC50 (spinach thylakoids): 0.1 µM; LOD (spinach thylakoids): 12.7 nM
COC1=C(OC)C(=O)C(C)=CC1=O [UQ0, ubiquinone-0] |  |  |  |  |  |  |  |  |  |  |  |  | Km [5]: 42 ± 2 µM; Kd (reaction centre QB site; 0.0025% LDAO): 175 µM and 90 µM; Kd (reaction centre QB site; 0.06% LDAO): 480 µM; Kd (reaction centre QB site; 0.1% LDAO): 600 µM
N#Cc1cc(Br)c(O)c(Br)c1 [bromoxynil] | greater than 80% | ineffective | unaffected | 0.038 ± 0.009 | 1.14 ± 0.04 | 36.1 ± 12.4 | 63.9 ± 2.2 |  |  |  |  | 30 | 
CN(C)C(=O)Nc1ccc(Cl)c(Cl)c1 [DCMU, 3-(3,4-dichlorophenyl)-1,1-dimethylurea] |  |  | unaffected | 0.179 ± 0.012 | 1.18 ± 0.04 | 51.7 ± 3.7 | 48.3 ± 3.7 |  |  |  |  | > 800 | increase in affinity in mutant ([4]; single tyrosine to phenylalanine change): at least four orders of magnitude; inhibitor grouping (in words) [6]: very weak inhibitors
C/C=C(C)/C=C/C=C/[C@H](OC)[C@@H](C)[C@@H](OC)[C@@H](C)CCc1oc2c(O)c(OC)cc(OC)c2c(=O)c1C [stigmatellin] |  | strong inhibition | accelerated significantly | 0.095 ± 0.003 |  | 100 |  | 0.28 ± 0.06 | 0.165 | less than 10% | 8.3 |  | LOD (IC5) ([1]; listed as Stigmatellin): 10 nM
N#Cc1cc(I)c(O)c(I)c1 [ioxynil] |  |  |  |  |  |  |  |  |  |  |  |  | increase in sensitivity to inhibitor in mutant [4, 7]: 100 fold; inhibitor grouping (in words) [6]: very weak inhibitors
COc1cc(CNC(=O)CCCC/C=C/C(C)C)ccc1O [capsaicin] | greater than 80% |  | unaffected | 0.152 ± 0.011 | 1.19 ± 0.03 | 41.0 ± 3.8 | 59.0 ± 2.2 |  |  |  |  |  | 
